For assay [1], the system named is diabetic wounds in Db mice. In words: Angiogenesis in diabetic wounds, CD31 immunohistochemistry at 7 days. The class given is in vivo. Here is the method:
The ability of compound UCUF-728 to improve diabetic wound healing in vivo was examined. Full-thickness excisional 8 mm wounds were created in Db mice and were immediately treated with 10 μM UCUF-728 or phosphate-buffered saline (PBS) control. Wound healing over the course of 22 days was monitored. Initial wound size was calculated immediately after wounding, and wound closure was assessed over time as the percentage of initial wound area. […] The effect of UCUF-728 treatment on angiogenesis was assessed using immunohistochemistry for endothelial marker CD31. Representative photos of immunoperoxidase staining for CD31 at 7 days in diabetic wounds treated with PBS or UCUF-728 are shown in FIG. 8A.
All animal experiments were approved by the Institutional Animal Care and Use Committee at the University of Colorado Denver—Anschutz Medical Campus, and experimental protocols followed the guidelines described in the NIH Guide for the Care and Use of Laboratory Animals. […] Mice pictures were taken every other day, wound size was analyzed by Image J. A full-thickness skin sample, centered on the wound, was harvested 3 and 7 days after surgery (n=5 per timepoint).
The effect of UCUF-965 treatment on angiogenesis was assessed using immunohistochemistry for the endothelial marker CD31. […] Quantification of the staining was obtained.

For another assay, the target named is CXCR4 (Homo sapiens, UniProt P61073). Nature of the assay: β-arrestin recruitment, 384-well, Tango CXCR4-bla U2OS cells, normalized to SDF-1α. The class given is cell-based. More on the design: host or cells: U2OS. The note with it: for EC50: normalized to SDF-1α, read-out: ß-arrestin recruitment EC50. The method, boiled down: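 Tango CXCR4-bla U2OS cells plated in DMEM with 1% dialyzed FBS (FreeStyle 293 medium for thiadiazines), incubated overnight at 37 °C, then LiveBLAzer FRET B/G substrate added for 2 h in the dark. Fluorescence read; EC50 and Emax fitted with Hill slope 1.0, normalized to SDF-1α.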
Chain of CXCR4 (P61073 whole entry): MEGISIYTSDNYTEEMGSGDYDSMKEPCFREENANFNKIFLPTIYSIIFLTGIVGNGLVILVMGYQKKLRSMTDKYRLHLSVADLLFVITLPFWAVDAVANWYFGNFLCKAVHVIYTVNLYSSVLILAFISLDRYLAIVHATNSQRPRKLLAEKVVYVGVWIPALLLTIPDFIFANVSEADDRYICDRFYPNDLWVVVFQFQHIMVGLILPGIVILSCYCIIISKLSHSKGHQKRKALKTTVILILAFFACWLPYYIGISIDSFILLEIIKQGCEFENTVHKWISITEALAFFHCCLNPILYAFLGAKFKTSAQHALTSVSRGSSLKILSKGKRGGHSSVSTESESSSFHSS
In general terms: Recruitment of arrestin is a read-out of receptor activation apart from second messengers.

Structures are written as SMILES. “Also recorded” adds a separate entry of the source. Where two headings read alike, the source gives them in different places.

Regarding `COc1ccc(OC)c(NS(=O)(=O)c2ccc(-c3cnc(C4CC4)o3)cc2)c1` [Oxazole Entry 19, 4-(2-Cyclopropyloxazol-5-yl)-N-(2,5-dimethoxyphenyl)benzenesulfonamide], the “number of vessels (CD31 staining) vs PBS” value in assay [1] (listed as UCUF-728) is reported as “significant increase in the number of vessels; also recorded: enhanced angiogenesis”. For the same compound, at CXCR4, the “β-arrestin recruitment activity” value is listed as “dose-dependent partial activation of β-arrestin recruitment” and the EC50 was found to be 500 nM. For the same compound, the Emax at CXCR4 (U2OS, read-out: ß-arrestin recruitment Emax (%)) was 30%.
`CCOc1ccccc1-c1nnc2n1N=C(c1ccc(N3CCCC3)cc1)CS2` [Thiadiazine Entry 23, 3-(2-ethoxyphenyl)-6-(4-(pyrrolidin-1-yl)phenyl)-7H-[1,2,4]triazolo[3,4-b][1,3,4]thiadiazine]: the “number of vessels (CD31 staining) vs PBS” value in assay [1] (listed as UCUF-965) is reported as “enhanced angiogenesis markers; also recorded: significantly increased the number of vessels”. Besides, the “β-arrestin recruitment activity” value on CXCR4 (listed as UCUF-965) is reported as “dose-dependent partial activation of β-arrestin recruitment; also recorded: did not inhibit the action of SDF-1α”. For the same compound, the EC50 at CXCR4 was 20 nM.

Broadly, the Emax is the size of the effect at its maximum, as opposed to the concentration needed. The term EC50 denotes the midpoint of the concentration-response curve.
